Laboratory results from patent US11499978B2, “Method for measuring quality of therapeutic cell through real-time glutathione measurement” (CELL2IN, INC., priority 2017, dated 2022).

Key:
hUC-MSCs [1] = experiment: mGSH distribution in hUC-MSCs after RSL3 (MitoFreSH, flow cytometry and confocal imaging); type: cell-based, human; details: hUC-MSCs at passage 4, 7 or 15; RSL3 0.1/0.5/1 μM; depending on RSL3 concentration and passage number
Method: After the cultured human umbilical cord-derived mesenchymal stem cells (hUC-MSCs) at passage 4, 7 or 15 were treated with various concentrations of RSL3 and stained with MitoFreSH, the distribution pattern of mitochondrial GSH (mGSH) in the cells was confirmed by histograms using flow cytometry and confocal imaging.
hUC-MSCs at passage 4, 7 or 15 were prepared, seeded at 70000 cells/well in a 6-well cell culture plate, and cultured at 37° C. for 24 hours. The medium used in the culture was prepared by adding 10% fetal bovine serum and 1× penicillin-streptomycin to α-MEM. […] The cells detached from the plate were transferred to an FACS tube and stored on ice, and a fluorescence level was measured using a flow cytometer.
hUC-MSCs at passage 4, 7 or 15 were prepared, seeded at 7000 cells/100 μl per well in a 96-well cell culture plate, and cultured at 37° C. for 24 hours. […] To remove MitoFreSH-Tracer from the medium before measurement, the medium was exchanged with fresh 10 mM HEPES-containing HBSS, and fluorescence images were measured using a confocal imaging system, Operetta.
A F510/F580 ratio referring to a GSH mean value in cells was calculated by measuring fluorescence values of F510 (fluorescence value when MitoFreSH-Tracer was bound with SH) and F580 (fluorescence value of MitoFreSH-Tracer, which was not bound with SH) in cells and dividing the F510 value by the F580 value. […]

human dermal fibroblasts = experiment: mGSH level in human dermal fibroblasts after RSL3; type: cell-based; details: as the subculture continued; confocal imaging
Method: As described in the experiment for MSCs, human dermal fibroblasts subcultured several times were treated with RSL3 and the cells were stained with MitoFreSH-Tracer, and a ratio between cells maintaining mGSH and cells not maintaining mGSH was represented as a percentage through confocal imaging.

hUC-MSCs [2] = experiment: CD146 surface expression in mGSH High and mGSH Low hUC-MSCs after RSL3; type: cell-based, human; details: P4 hUC-MSC group in which mGSH level is lowered by RSL3, compared with mGSH level-maintaining group
Description: To confirm whether the stem cell function of cells in which an mGSH level decreased is deteriorated under lipid oxidative stress caused by RSL3 treatment, an expression level of CD146, which is a cell surface protein known to be highly expressed in stem cells of high quality according to conventional literature, was confirmed through flow cytometry.
The cells were stained by the same method as a method of measuring a mitochondria GSH level through the flow cytometry described above, and detached from the plate using trypsin. The detached cells were treated with an antibody for flow cytometry with respect to CD146 to which a fluorescent material BUV395 was bound at 4° C. for 30 minutes, and washed with PBS. Using a flow cytometer, F510 and F580 fluorescence values for measuring a GSH level and a BUV395 fluorescence value for measuring CD146 expression were measured. Afterward, based on the point at which the histogram showing the F510/F580 distribution was divided into two peaks, the cells were divided into GSH^High cells (right peak) and GSH^Low cells (left peak) using FlowJo software, and a CD146-positive ratio of the corresponding cells is represented as a percentage (%).

With `COC(=O)c1ccc([C@@H]2c3[nH]c4ccccc4c3C[C@@H](C(=O)OC)N2C(=O)CCl)cc1` [RSL3, 1S,3R-RAS-selective lethal 3] the mGSH levels (hUC-MSCs [1]) was “reduced”, the “proportion of cells in which mGSH decreases by treatment with RSL3” value (human dermal fibroblasts) was “increased” and the “lowering of CD146-positive ratio” value (hUC-MSCs [2]) was “approximately 25%”.
